Reference: article PMC9271048, “Probing strigolactone perception mechanisms with rationally designed small-molecule agonists stimulating germination of root parasitic weeds” (Nature Communications, 2022)
Where two headings read alike, the source gives them in different places.

Columns and labels:
AtD14 = target: T1, AtD14 (Arabidopsis thaliana, UniProt Q9SQR3); assay: Competitive inhibition of AtD14 with YLG as substrate; format: biochemical
T1 construct: His tag; made in house; host or cells: E. coli BL21
T1 sequence (Q9SQR3 1-267): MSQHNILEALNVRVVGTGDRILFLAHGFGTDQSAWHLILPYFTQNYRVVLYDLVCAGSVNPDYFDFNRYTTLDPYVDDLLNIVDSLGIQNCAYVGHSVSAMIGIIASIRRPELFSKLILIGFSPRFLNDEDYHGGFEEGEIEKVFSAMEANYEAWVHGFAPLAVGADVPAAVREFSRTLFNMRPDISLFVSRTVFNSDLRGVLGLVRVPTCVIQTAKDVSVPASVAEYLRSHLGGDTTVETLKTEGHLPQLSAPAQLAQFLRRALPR
Method: (§1) The excitation and emission wavelengths of YLG are 480 and 520 nm, respectively. We used a fluorescence spectrophotometer (CARY Eclipse) to detect the fluorescence intensity change of YLG during the enzymatic hydrolysis assay process. All the testing compounds and YLG were dissolved in DMSO and prepared as stock solutions just before use. […] The changes of fluorescence at 520 nm of each well were recorded every 1 min for 30 min. Using the reaction mixture without adding enzyme and tested compounds as the background control. After subtracting the background hydrolysis, a linear fluorescence increase in 8 min was used for further inspection. The IC50 values were determined via fitting relative inhibition percentages with the varying concentrations of compounds in Microsoft Excel.

ShHTL7 = ShHTL7 (Striga hermonthica, UniProt A0A0M3PNA2); assay: biochemical; format: binding
ShHTL7, sequence (A0A0M3PNA2 entry or part of it): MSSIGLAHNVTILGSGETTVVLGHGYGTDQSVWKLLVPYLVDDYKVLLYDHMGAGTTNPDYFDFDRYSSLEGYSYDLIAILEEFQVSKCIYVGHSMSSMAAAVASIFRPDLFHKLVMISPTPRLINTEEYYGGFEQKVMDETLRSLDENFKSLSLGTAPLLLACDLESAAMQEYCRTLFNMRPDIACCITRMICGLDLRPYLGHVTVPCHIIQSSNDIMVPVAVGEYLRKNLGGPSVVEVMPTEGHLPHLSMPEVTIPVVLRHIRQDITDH
Outline: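 Surface plasmon resonance was run at 25 °C on ShHTL7 immobilized by amine coupling, using phosphate-buffered saline with 0.05% P20 and 0.5% DMSO. Each injection had 1 min association and 1 min dissociation, with a 50 μM screen followed by concentration series. KD was derived by kinetic analysis or steady-state affinity.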

[1] = system: PaKAI2s (5 KAI2 protein homologs in P. aegyptiaca); assay: YLG-based competition assay on KAI2 protein homologs of P. aegyptiaca; format: biochemical, Phelipanche aegyptiaca; settings: Supplementary Fig. 27
Excerpt: In P. aegyptiaca, 5 KAI2s have been proposed as the SL receptors for the regulation of seed germination. […] The high sequence similarity may explain the consistency of these compounds in inducing germination in both S. hermonthica and P. aegyptiaca.
as §1
Supplementary Fig. 27. Binding of compounds 4a, (R)- and (S)-4a, and 4g-i to the HTL proteins in S. hermonthica and KAI2 protein homologs in P. aegyptiaca. In the competitive inhibitory activity assay, YLG (3 µM) was used as the fluorogenic substrate. Error bar indicates SD (n = 3 biologically independent experiments).
(1 picture or pasted object on this page, not shown here)

[2] = Chemical reactivity analysis (HPLC, methanol/PBS pH 7.4); format: physicochemical; settings: for half-life at 0.5 mM: methanol/phosphate-buffered saline mixture, read-out: half-life time (t1/2), source data average (converted)
Method: Chemical reactivity is an important factor in the bioactivity of natural and synthetic SLs.
One hundred twenty microliters of sample solution was added to a solution of PBS (10 mM, pH 7.4, 810 μL) and methanol (270 μL). The solution was stirred vigorously for 30 s and then transferred to HPLC vial, and the vial was stored at 26 ± 1 °C. […] The analytical column was Extend-C18 (4.6 mm × 150 mm × 5 μm). The mobile phases were CH3CN and H2O (containing 0.1% HCO2H), VCH3CN:VH2O = 50:50, with a flow rate of 1 mL/min, and an injection volume of 5 μL. The percentage of remaining compounds in the solution was calculated from the peak area. The half-life times (t1/2) of samples were calculated.

ShHTL7-SMAX1 interaction = assay: Yeast two-hybrid assay ShHTL7-SMAX1; format: cell-based, Striga hermonthica
Method: To construct plasmids for yeast two-hybrid assays, the CDS of ShHTL7 and AtD14 were cloned into yeast expression vector pBrigde to generate BD-ShHTL7 and BD-AtD14, and the CDS of ShMAX2, AtMAX2, SMAX1 were cloned into pGADT7 to make Gal4 DNA activation domain (AD) constructs, respectively. Primers used for yeast expression vector construction are listed in Supplementary Table 6. Yeast two-hybrid assays were performed using the Yeastmaker Yeast Transformation System 2 (Clontech). In brief, Yeast AH109 cells were co-transformed with specific bait and prey constructs and coated on selective growth medium SD/-Leu-Trp for 3 days at 30 °C, pick the positive constructs into liquid selective growth medium SD/-Leu-Trp shaking for 36 h at 30 °C. Washed yeast cells three times and diluted, made sure OD600 reached 2.5, then serial 10-fold dilutions of yeast cultures were spotted onto selective growth mediums that were supplemented with different concentrations of rac-GR24 and tested molecules, respectively. All yeast transformants were grown on a selective growth medium at 30 °C for 3 days.

[3] = YLG as the substrate, read-out: Competitive AtD14 inhibitory activity IC50
[4] = KAI2C, YLG competition, read-out: IC50, replicate 1
[5] = KAI2C, YLG competition, read-out: IC50, replicate 2
[6] = KAI2C, YLG competition, read-out: IC50, replicate 3
[7] = KAI2C, average of 3 replicates, read-out: IC50, average
[8] = KAI2d1, YLG competition, read-out: IC50, replicate 1
[9] = KAI2d1, YLG competition, read-out: IC50, replicate 2
[10] = KAI2d1, YLG competition, read-out: IC50, replicate 3
[11] = KAI2d1, average of 3 replicates, read-out: IC50, average
[12] = KAI2d2, YLG competition, read-out: IC50, replicate 1
[13] = KAI2d2, YLG competition, read-out: IC50, replicate 2
[14] = KAI2d2, YLG competition, read-out: IC50, replicate 3
[15] = KAI2d2, average of 3 replicates, read-out: IC50, average
[16] = KAI2d3, YLG competition, read-out: IC50, replicate 1
[17] = KAI2d3, YLG competition, read-out: IC50, replicate 2
[18] = KAI2d3, YLG competition, read-out: IC50, replicate 3
[19] = KAI2d3, average of 3 replicates, read-out: IC50, average
[20] = KAI2d4, YLG competition, read-out: IC50, replicate 1
[21] = KAI2d4, YLG competition, read-out: IC50, replicate 2
[22] = KAI2d4, YLG competition, read-out: IC50, replicate 3
[23] = KAI2d4, average of 3 replicates, read-out: IC50, average
[24] = Supplementary Fig. 10 source data, methanol/PBS pH 7.4, 26 °C
[25] = Supplementary Table 7, binding affinities between ShHTL7 and agonists by SPR, read-out: KD/μM

Compound | IC50 [1, 4] | IC50 [1, 5] | IC50 [1, 6] | IC50 [1, 7] | IC50 [1, 8] | IC50 [1, 9] | IC50 [1, 10] | IC50 [1, 11] | IC50 [1, 12] | IC50 [1, 13] | IC50 [1, 14] | IC50 [1, 15] | IC50 [1, 16] | IC50 [1, 17] | IC50 [1, 18] | IC50 [1, 19] | IC50 [1, 20] | IC50 [1, 21] | IC50 [1, 22] | IC50 [1, 23] | other results
CC1=CC(OC(=O)N2CCN(C(=O)COc3ccc(Br)cc3C)CC2)OC1=O (centres unmarked) [4a] | 10.9 µM | 13.8 µM | 21.5 µM | 15.4 µM | 33.3 µM | 33.3 µM | 24.8 µM | 30.5 µM | 40.8 µM | 46.6 µM | 48.6 µM | 45.3 µM | 30.6 µM | 26.4 µM | 27.7 µM | 28.2 µM | 17.4 µM | 17.7 µM | 26.3 µM | 20.5 µM | IC50 (AtD14; [3]): > 100 µM; Kd (ShHTL7): 2.07 ± 0.51 µM; half-life at 0.5 mM [2, 24]: 3.38 h; induction of ShHTL7-SMAX1 interaction (Y2H) (ShHTL7-SMAX1 interaction; 1 μM): strongly induce the interaction
CC1=C[C@@H](OC(=O)N2CCN(C(=O)COc3ccc(Br)cc3C)CC2)OC1=O [(R)-4a] | 53.2 µM | 56.3 µM | 44.7 µM | 51.4 µM | > 100 µM | > 100 µM | > 100 µM | > 100 µM | > 100 µM | > 100 µM | > 100 µM | > 100 µM | 84.6 µM | 78.5 µM | 91.5 µM | 84.9 µM | > 100 µM | > 100 µM | > 100 µM | > 100 µM | IC50 (AtD14; [3]): > 100 µM; Kd (ShHTL7; [25]): 1.69 ± 0.04 µM; half-life at 0.5 mM [2, 24]: 6.99 h; induction of ShHTL7-SMAX1 interaction (Y2H) (ShHTL7-SMAX1 interaction; 200 μM): did induce the interaction; induction of ShHTL7-SMAX1 interaction (Y2H) (ShHTL7-SMAX1 interaction; 1 and 5 μM): no ShHTL7-SMAX1 or ShHTL7-AtMAX2 interactions were detected
CC1=C[C@H](O/C=C2/C(=O)O[C@@H]3c4ccccc4C[C@H]23)OC1=O (racemic) [rac-GR24, reference compound] | 7.31 µM | 5.69 µM | 6.56 µM | 6.52 µM | 1.78 µM | 2.83 µM | 2.39 µM | 2.33 µM | 5.14 µM | 2.89 µM | 3.46 µM | 3.83 µM | 2.27 µM | 2.04 µM | 1.55 µM | 1.95 µM | 6.41 µM | 5.83 µM | 7.25 µM | 6.5 µM | IC50 (AtD14; source data of Fig. 4b and Supplementary Fig. 14, read-out: Competitive AtD14 inhibitory activity IC50, source data average): 6.54 µM; Kd (ShHTL7; [25]): 0.93 ± 0.17 µM; Kd (ShHTL7; recombinant ShHTL7 immobilized on CM5 chip, 25 °C, read-out: KD (SPR)): ~0.93 µM; half-life time (t1/2) ([2]; 1:3 methanol and PBS (10 mM) pH 7.4, HPLC): 3.0 h; half-life time (t1/2), source data average [2, 24]: 3.031 h
CC1=C[C@H](OC(=O)N2CCN(C(=O)COc3ccc(Br)cc3C)CC2)OC1=O [(S)-4a] | 5.99 µM | 5.59 µM | 5.14 µM | 5.57 µM | 14.8 µM | 11.8 µM | 14.3 µM | 13.6 µM | 41.7 µM | 36.2 µM | 35.4 µM | 37.8 µM | 11.9 µM | 8.47 µM | 7.99 µM | 9.45 µM | 6.05 µM | 6.25 µM | 8.45 µM | 6.92 µM | IC50 (AtD14; [3]): > 100 µM; Kd (ShHTL7; [25]): 0.79 ± 0.06 µM; half-life at 0.5 mM [2, 24]: 7.71 h; induction of ShHTL7-SMAX1 interaction (Y2H) (ShHTL7-SMAX1 interaction; 1 μM): strongly induce the interaction
